Test results from the NIST ThermoML archive (doi:10.1016/j.jct.2013.06.008).

Conditions: 100 kPa, Liquid; for electrical conductivity: Alternating current cell with electrodes

CCCCCC[n+]1ccc(C)cc1.O=S(=O)([N-]S(=O)(=O)C(F)(F)F)C(F)(F)F
Conditions	electrical conductivity [S/m]
283.15 K	0.0839
288.15 K	0.11
293.15 K	0.145
298.15 K	0.185
303.15 K	0.231
308.15 K	0.283
313.15 K	0.346
318.15 K	0.415
323.15 K	0.487
328.15 K	0.571
333.15 K	0.652
338.15 K	0.756
343.15 K	0.861
348.15 K	0.968
353.15 K	1.07

Conditions	mass density, Vibrating tube method [kg/m3]	viscosity, Concentric cylinders viscometry [mPa·s]
283.15 K	1365.3	181.62
288.15 K	1360.8	133.92
293.15 K	1356.3	101.07
298.15 K	1351.8	77.99
303.15 K	1347.4	61.3
308.15 K	1342.9	49.03
313.15 K	1338.5	39.75
318.15 K	1334.1	32.73
323.15 K	1329.6	27.38
328.15 K	1325.2	23.11
333.15 K	1320.8	19.71
338.15 K	1316.5	16.97
343.15 K	1312.1	14.73
348.15 K	1307.8	12.87
353.15 K	1303.4	11.32

CCC[n+]1cccc(C)c1.O=S(=O)([N-]S(=O)(=O)C(F)(F)F)C(F)(F)F
Conditions	electrical conductivity [S/m]
278.15 K	0.152
283.15 K	0.199
288.15 K	0.253
293.15 K	0.318
298.15 K	0.393
303.15 K	0.476
308.15 K	0.571
313.15 K	0.671
318.15 K	0.786
323.15 K	0.904
328.15 K	1.04
333.15 K	1.18
338.15 K	1.33
343.15 K	1.49
348.15 K	1.65
353.15 K	1.83

Conditions	mass density, Buoyancy - hydrostatic balance [kg/m3]	viscosity, Capillary tube (Ostwald / Ubbelohde) method [mPa·s]
288.15 K	1459.6	–
293.15 K	1455.6	–
298.15 K	1451.4	54.12
303.15 K	1447.1	43.46
308.15 K	1442.6	35.27
313.15 K	1438	29.18
318.15 K	1433.2	24.32
323.15 K	1428.7	20.87
328.15 K	1424.5	17.94
333.15 K	1420.3	15.15
338.15 K	1416	13.4
343.15 K	–	11.74
348.15 K	–	10.37
353.15 K	–	9.19

CCCCCC[n+]1cccc(C)c1.O=S(=O)([N-]S(=O)(=O)C(F)(F)F)C(F)(F)F
Conditions	electrical conductivity [S/m]
278.15 K	0.0495
283.15 K	0.067
288.15 K	0.0885
293.15 K	0.116
298.15 K	0.148
303.15 K	0.187
308.15 K	0.231
313.15 K	0.283
318.15 K	0.342
323.15 K	0.406
328.15 K	0.477
333.15 K	0.553
338.15 K	0.638
343.15 K	0.728
348.15 K	0.822
353.15 K	0.92

Conditions	mass density, Buoyancy - hydrostatic balance [kg/m3]	viscosity, Capillary tube (Ostwald / Ubbelohde) method [mPa·s]
283.15 K	1373.6	–
288.15 K	1369.7	–
293.15 K	1365.3	–
298.15 K	1361.5	86.59
303.15 K	1357	67.83
308.15 K	1352.9	54.23
313.15 K	1348.7	44.24
318.15 K	1344.7	36.21
323.15 K	1340.3	29.97
328.15 K	1336	25.08
333.15 K	1331.7	21.31
338.15 K	1328	18.28
343.15 K	–	15.88
348.15 K	–	13.71
353.15 K	–	11.99
